The compounds below were run against hCereblon(M1-L442)_hDDB1(M1-H1140) (Homo sapiens (Human), UniProt Q96SW2) (assay: Fluorescence direct binding protocol (tryptophan fluorescence titration)). Conditions: 20° C., excited at 280 nm, recorded at 340 nm, assay buffer 50 mM Hepes 7.4 200 mM NaCl; read-out: Fluorescence h-Cereblon_DDB1 Mean Kd_EQ.
Procedure: Fluorescence Direct Binding Protocol
Determination of the affinities of compounds to protein containing one or more tryptophan is measurable by monitoring the fluorescence emission in direct mode. The measurements depending on the protein available amounts are performed either manually in a cuvette on ISS-PC1 photon counting spectrofluorometer or automatically in well plates on a fluorescence plate reader device. Fluorescence titrations are performed at 20° C. in the chosen binding assay buffer by using a defined constant protein concentration against ligand concentration variations. Small aliquots of known ligand concentration solubilized in DMSO were added and the fluorescence, excited at 280 nm, was recorded at 340 nm. The fluorescence intensity was corrected for protein dilution and for the filter effect (Birdsall et al.^72).
1) Optimization of measurement parameters to minimize protein consumption and to minimize the dilution effect and the DMSO content
2) Titration measurements of the protein against ligand by at least 12 titration steps to obtain a good s-curve fit
3) Repeat the same titration measurements with the ligand alone to enable correction
4) Check the stability of the protein once by titration against DMSO alone
5) Determination of the molar extinction coefficients of the ligand at 280 and 340 nm with help of an UV-spectrophotometer
6) Use Excel template for the correction of the measured raw data
7) Use GraphPad Prism software for the quadratic binding fit and the KD evaluation.

hCereblon(M1-L442)_hDDB1(M1-H1140), sequence (Q96SW2 whole entry): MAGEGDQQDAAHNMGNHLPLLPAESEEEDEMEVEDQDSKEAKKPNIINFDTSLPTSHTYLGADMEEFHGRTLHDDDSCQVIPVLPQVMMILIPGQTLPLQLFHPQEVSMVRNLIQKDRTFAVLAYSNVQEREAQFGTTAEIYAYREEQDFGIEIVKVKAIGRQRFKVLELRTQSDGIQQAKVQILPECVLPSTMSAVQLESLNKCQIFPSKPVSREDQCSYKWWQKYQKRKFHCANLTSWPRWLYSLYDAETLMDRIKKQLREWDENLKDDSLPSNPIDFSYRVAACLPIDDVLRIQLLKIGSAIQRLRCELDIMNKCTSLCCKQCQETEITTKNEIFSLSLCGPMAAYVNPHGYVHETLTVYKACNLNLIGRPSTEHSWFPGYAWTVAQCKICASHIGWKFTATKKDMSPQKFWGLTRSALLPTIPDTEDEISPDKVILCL
hCereblon(M1-L442)_hDDB1(M1-H1140), sequence (Q16531 whole entry partner): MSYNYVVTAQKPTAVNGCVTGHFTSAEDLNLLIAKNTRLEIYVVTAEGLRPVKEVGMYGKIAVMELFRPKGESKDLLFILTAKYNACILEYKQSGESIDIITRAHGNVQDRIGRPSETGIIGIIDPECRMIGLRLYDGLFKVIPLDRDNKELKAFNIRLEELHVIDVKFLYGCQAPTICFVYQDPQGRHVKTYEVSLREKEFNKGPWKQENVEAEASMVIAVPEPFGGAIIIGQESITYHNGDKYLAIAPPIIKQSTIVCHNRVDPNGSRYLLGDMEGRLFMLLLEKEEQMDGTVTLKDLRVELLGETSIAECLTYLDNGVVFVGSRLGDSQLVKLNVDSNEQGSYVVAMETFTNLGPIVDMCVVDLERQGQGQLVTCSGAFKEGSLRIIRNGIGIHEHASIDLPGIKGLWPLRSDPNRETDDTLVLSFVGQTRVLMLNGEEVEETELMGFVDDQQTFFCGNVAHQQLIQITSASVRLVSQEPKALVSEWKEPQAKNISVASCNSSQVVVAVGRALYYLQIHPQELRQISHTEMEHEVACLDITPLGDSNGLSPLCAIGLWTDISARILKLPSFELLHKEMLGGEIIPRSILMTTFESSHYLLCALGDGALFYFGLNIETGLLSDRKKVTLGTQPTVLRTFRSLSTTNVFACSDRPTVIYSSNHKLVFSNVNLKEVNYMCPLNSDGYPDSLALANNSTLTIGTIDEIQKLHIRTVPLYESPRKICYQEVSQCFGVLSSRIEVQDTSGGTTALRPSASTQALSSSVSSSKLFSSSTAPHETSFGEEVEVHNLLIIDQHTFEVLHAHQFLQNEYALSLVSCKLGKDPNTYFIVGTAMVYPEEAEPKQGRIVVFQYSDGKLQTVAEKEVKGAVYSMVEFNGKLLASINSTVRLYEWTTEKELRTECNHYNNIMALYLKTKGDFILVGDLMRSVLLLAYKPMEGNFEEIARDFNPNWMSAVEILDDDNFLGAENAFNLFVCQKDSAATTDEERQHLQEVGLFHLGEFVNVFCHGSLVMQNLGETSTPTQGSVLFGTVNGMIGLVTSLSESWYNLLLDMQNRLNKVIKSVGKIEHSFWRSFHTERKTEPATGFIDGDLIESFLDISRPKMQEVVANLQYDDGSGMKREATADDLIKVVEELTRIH

Row | Compound | Kd [nM]
1 | O=C1CC[C@@H](NC(=O)C2CCc3cccnc32)C(=O)N1 (mixture of isomers) [Example 22] | < 1
2 | O=C1CCC(NC(=O)C2CCc3ccccc32)C(=O)N1 (racemic) [Example 2, N-(2,6-Dioxopiperidin-3-yl)-2,3-dihydro-1H-indene-1-carboxamide] | 655
3 | CN1C(=O)CCC(NC(=O)[C@H]2CCCc3ccccc32)C1=O (single isomer, unassigned) [Example 74] | 5
4 | CN1C(=O)CCC(NC(=O)[C@H]2CCCc3ccccc32)C1=O (single isomer, unassigned) [Example 75] | 46
5 | O=C1CCC(NC(=O)C2CCc3ccccc32)C(=O)N1 (single isomer, unassigned; (+)) [Example 5, (+)-N-(2,6-Dioxopiperidin-3-yl)-2,3-dihydro-1H-indene-1-carboxamide] | 197
6 | O=C1CCC(NC(=O)C2CCc3ccccc32)C(=O)N1 (single isomer, unassigned; (-)) [Example 4, (−)-N-(2,6-Dioxopiperidin-3-yl)-2,3-dihydro-1H-indene-1-carboxamide] | 68
7 | O=C1CC[C@H](NC(=O)Cc2ccccc2)C(=O)N1 [Example 1, (S)-N-(2,6-Dioxo-3-piperidinyl)benzeneacetamide] | 27
8 | CCCN1Cc2ccccc2C1C(=O)NC1CCC(=O)NC1=O (stereo not drawn) [Example 3, N-(2,6-Dioxopiperidin-3-yl)-2-propylisoindoline-1-carboxamide] | 57
9 | O=C1CCC(NC(=O)C2CCc3ccccc32)C(=O)N1 (stereo not drawn) [Example 6, N-(2,6-Dioxopiperidin-3-yl)-2,3-dihydro-1H-indene-1-carboxamide] | 146
10 | O=C1CCC(NC(=O)c2c[nH]c3ccccc23)C(=O)N1 (stereo not drawn) [Example 7, N-(2,6-Dioxopiperidin-3-yl)-1H-indole-3-carboxamide] | 28
11 | Cn1cc(C(=O)NC2CCC(=O)NC2=O)c2ccccc21 (stereo not drawn) [Example 8, N-(2,6-Dioxopiperidin-3-yl)-1-methyl-1H-indole-3-carboxamide] | 30
12 | O=C1CCC(NC(=O)N2CCc3ccccc32)C(=O)N1 (stereo not drawn) [Example 9, N-(2,6-Dioxopiperidin-3-yl)indoline-1-carboxamide] | 2
13 | O=C1CCC(NC(=O)C2CCCC2)C(=O)N1 (stereo not drawn) [Example 11, N-(2,6-Dioxopiperidin-3-yl)cyclopentanecarboxamide] | 12
14 | O=C1CCC(NC(=O)c2coc3ccccc23)C(=O)N1 (stereo not drawn) [Example 12, N-(2,6-Dioxopiperidin-3-yl)benzofuran-3-carboxamide] | 2
15 | O=C1CCC(NC(=O)c2csc3ccccc23)C(=O)N1 (stereo not drawn) [Example 13, N-(2,6-Dioxopiperidin-3-yl)benzo[b]thiophene-3-carboxamide] | 8
16 | O=C1CCC(NC(=O)[C@@H]2CCCc3ccccc32)C(=O)N1 (stereo partly drawn) [Example 14, (1R)-N-(2,6-Dioxopiperidin-3-yl)-1,2,3,4-tetrahydronaphthalene-1-carboxamide] | 4
17 | O=C1CCC(NC(=O)[C@H]2CCCc3ccccc32)C(=O)N1 (stereo partly drawn) [Example 15, (1S)-N-(2,6-Dioxopiperidin-3-yl)-1,2,3,4-tetrahydronaphthalene-1-carboxamide] | < 1
18 | CN(C(=O)c1c[nH]c2ccccc12)C1CCC(=O)NC1=O (stereo not drawn) [Example 16, N-(2,6-Dioxopiperidin-3-yl)-N-methyl-1H-indole-3-carboxamide] | 3
19 | O=C1CC[C@H](NC(=O)c2c[nH]c3ccccc23)C(=O)N1 [Example 17, (S)-N-(2,6-Dioxopiperidin-3-yl)-1H-indole-3-carboxamide] | 14
20 | O=C1CC[C@@H](NC(=O)c2c[nH]c3ccccc23)C(=O)N1 [Example 18, (R)-N-(2,6-Dioxopiperidin-3-yl)-1H-indole-3-carboxamide] | 14
21 | O=C1CC[C@H](NC(=O)C2CCc3ncccc32)C(=O)N1 (stereo partly drawn) [Example 19, N-((S)-2,6-Dioxopiperidin-3-yl)-6,7-dihydro-5H-cyclopenta[b]pyridine-5-carboxamide] | 1
22 | O=C1CC[C@@H](NC(=O)C2CCc3ncccc32)C(=O)N1 (stereo partly drawn) [Example 20, N-((R)-2,6-Dioxopiperidin-3-yl)-6,7-dihydro-5H-cyclopenta[b]pyridine-5-carboxamide] | 3
23 | O=C1CC[C@H](NC(=O)c2coc3ccccc23)C(=O)N1 [Example 21, (S)-N-(2,6-Dioxopiperidin-3-yl)benzofuran-3-carboxamide] | 1

Row | Compound | Kd [nM]
24 | O=C1CC[C@H](NC(=O)C2CCc3cccnc32)C(=O)N1 (stereo partly drawn) [Example 23, N-((S)-2,6-Dioxopiperidin-3-yl)-6,7-dihydro-5H-cyclopenta[b]pyridine-7-carboxamide] | 25
25 | O=C1CC[C@@H](NC(=O)c2csc3ccccc23)C(=O)N1 [Example 24, (R)-N-(2,6-Dioxopiperidin-3-yl)benzo[b]thiophene-3-carboxamide] | 9
26 | O=C1CC[C@H](NC(=O)c2csc3ccccc23)C(=O)N1 [Example 25, (S)-N-(2,6-Dioxopiperidin-3-yl)benzo[b]thiophene-3-carboxamide] | 23
27 | O=C1CC[C@@H](NC(=O)[C@H]2CCCc3ccccc32)C(=O)N1 [Example 26, (S)-N-((R)-2,6-Dioxopiperidin-3-yl)-1,2,3,4-tetrahydronaphthalene-1-carboxamide] | 6
28 | O=C1CC[C@H](NC(=O)[C@H]2CCCc3ccccc32)C(=O)N1 [Example 27, (S)-N-((S)-2,6-Dioxopiperidin-3-yl)-1,2,3,4-tetrahydronaphthalene-1-carboxamide] | 3
29 | O=C1CC[C@H](NC(=O)N2CCCc3ccccc32)C(=O)N1 [Example 28, (S)-N-(2,6-Dioxopiperidin-3-yl)-3,4-dihydroquinoline-1(2H)-carboxamide] | 4
30 | O=C1CC[C@H](NC(=O)N2CCc3cccnc32)C(=O)N1 [Example 29, (S)-N-(2,6-Dioxopiperidin-3-yl)-2,3-dihydro-1H-pyrrolo[2,3-b]pyridine-1-carboxamide] | < 1
31 | O=C1CC[C@H](NC(=O)N2CCCc3cccnc32)C(=O)N1 [Example 30, (S)-N-(2,6-Dioxopiperidin-3-yl)-3,4-dihydro-1,8-naphthyridine-1 (2H)-carboxamide] | 4
32 | O=C1CC[C@H](NC(=O)C2CCOc3ccccc32)C(=O)N1 (stereo partly drawn) [Example 31, N-[(3S)-2,6-Dioxo-3-piperidyl]chromane-4-carboxamide] | 5
33 | O=C1CC[C@H](NC(=O)[C@H]2CCNc3ccccc32)C(=O)N1 [Example 32, (4S)-N-[(3S)-2,6-Dioxopiperidin-3-yl]-1,2,3,4-tetrahydroquinoline-4-carboxamide] | < 1
34 | O=C1CC[C@H](NC(=O)[C@@H]2CCNc3ccccc32)C(=O)N1 [Example 33, (4R)-N-[(3S)-2,6-Dioxopiperidin-3-yl]-1,2,3,4-tetrahydroquinoline-4-carboxamide] | 6
35 | O=C1CC[C@@H](NC(=O)c2coc3ccccc23)C(=O)N1 [Example 34, (R)-N-(2,6-Dioxopiperidin-3-yl)benzofuran-3-carboxamide] | 26
36 | O=C1CC[C@@H](NC(=O)N2CCCc3ccccc32)C(=O)N1 [Example 35, (R)-N-(2,6-Dioxopiperidin-3-yl)-3,4-dihydroquinoline-1(2H)-carboxamide] | 19
37 | O=C1CC[C@@H](NC(=O)N2CCc3cccnc32)C(=O)N1 [Example 36, (R)-N-(2,6-Dioxopiperidin-3-yl)-2,3-dihydro-1H-pyrrolo[2,3-b]pyridine-1-carboxamide] | 10
38 | O=C1CC[C@H](NC(=O)C2CCNc3ccccc32)C(=O)N1 (stereo partly drawn) [Example 37, N-[(3S)-2,6-Dioxo-3-piperidyl]-1,2,3,4-tetrahydroquinoline-4-carboxamide] | < 1
39 | CN1CCC(C(=O)N[C@H]2CCC(=O)NC2=O)c2ccccc21 (stereo partly drawn) [Example 38, N-[(3S)-2,6-Dioxo-3-piperidyl]-1-methyl-3,4-dihydro-2H-quinoline-4-carboxamide] | 5
40 | O=C1CC[C@@H](NC(=O)C2CCNc3ccccc32)C(=O)N1 (stereo partly drawn) [Example 39, N-[(3R)-2,6-Dioxo-3-piperidyl]-1,2,3,4-tetrahydroquinoline-4-carboxamide] | 19
41 | CN1CCC(C(=O)N[C@@H]2CCC(=O)NC2=O)c2ccccc21 (stereo partly drawn) [Example 40, N-[(3R)-2,6-Dioxo-3-piperidyl]-1-methyl-3,4-dihydro-2H-quinoline-4-carboxamide] | 68
42 | O=C1CC[C@@H](NC(=O)C2CCOc3ccccc32)C(=O)N1 (stereo partly drawn) [Example 41, N-[(3R)-2,6-Dioxo-3-piperidyl]chromane-4-carboxamide] | 14
43 | COC(=O)c1ccc2c(C(=O)N[C@H]3CCC(=O)NC3=O)c[nH]c2c1 [Example 42, Methyl (S)-3-((2,6-dioxopiperidin-3-yl)carbamoyl)-1H-indole-6-carboxylate] | 18
44 | O=C1CC[C@@H](NC(=O)[C@H]2CCNc3ccccc32)C(=O)N1 [Example 43, (4S)-N-[(3R)-2,6-Dioxopiperidin-3-yl]-1,2,3,4-tetrahydroquinoline-4-carboxamide] | < 1
45 | O=C1CC[C@@H](NC(=O)[C@@H]2CCNc3ccccc32)C(=O)N1 [Example 44, (4R)-N-[(3R)-2,6-Dioxopiperidin-3-yl]-1,2,3,4-tetrahydroquinoline-4-carboxamide] | 12

Source: patent US11802131B2, “Glutarimides for medical treatment” (C4 Therapeutics, Inc., priority 2017, dated 2023)
